The record followed here is patent US20240382476A1, “ANDROGEN RECEPTOR BIOMARKERS FOR CANCER THERAPY” (priority 2021, published 2024).

The test system of assay [1] is PC-3 (AR−) prostate tumors. In words: Antitumor activity in mice bearing subcutaneously xenografted PC-3 prostate tumors. The format is in vivo, nude mice. Particulars: PC-3 (AR−) s.c. xenograft, 21-days s.c. continuous infusion by osmotic pump. From the text: (§1) Animal Models. Five or six-week old male nude mice were purchased from SPF Biotechnology Co., Ltd. (Beijing, China). The prostate tumor cell suspensions (PC-3 or 22RV1) were grafted subcutaneously into the flank of nude mice at a concentration of 3×10^6 cells/mouse. Eight mice whose tumor volumes length×width^2×0.5 (length×width^2×0.5) reached approximately 100 mm^3 were divided into groups. For 21-days subcutaneous (s.c.) continuous infusion, an osmotic pump containing YM155 was implanted in the dorsum of each animal. Body weight and tumor diameter were measured every 3-4 days. The results are shown in FIG. 6A (AR^−) and 6B (AR^+). Anti-tumor activities are expressed as percent inhibition of tumor growth. The percent inhibition of tumor growth on day 21/28 was calculated using following formula: Mean % Inhibition=(mean (Control)−mean (YM155))/mean (Control)*100%. The treatment was started at day 0; vertical bars, SEM.

Assay [2] has as its system 22RV1 (AR+) prostate tumors. In words: Antitumor activity in mice bearing subcutaneously xenografted 22RV1 prostate tumors. The class given is in vivo, nude mice. The conditions noted are these: 22RV1 (AR+) s.c. xenograft; 21-days s.c. continuous infusion by osmotic pump.
Source text: as §1

Assay [3] relates to AR− and AR+ prostate carcinoma cells (PC-3, DU145, 22Rv1, LNCaP, VcaP, LNCaP clone FGC). In words: Cell treatment and proliferation assay with high content imaging. The class given is cell-based, human. Particulars: 6.25-100 nM for 72 hrs (FIG. 2); 10 nM for 2-72 hrs (FIGS. 3A-3B). How it is done:
Cell Treatment and proliferation assay. PC-3 and DU145 cells were seeded in 96-well plates (Corning, USA) at 2000 cells/well; LNCaP, VcaP, and LNCaP clone FGC cells were seeded at 5000 cells/well; and 22Rv1 cells were seeded at 3000 cells/well. Cells were treated with 10 nM YM155 or 0.1% DMSO (VWR, USA) for different times (2, 6, 24, 48, and 72 hrs). DU145 cells were also treated with YM155 (10 nM) in further combination with etoposide (0.2 ∪M)+carboplatin (2 ∪M), etoposide (0.2 ∪M)+cisplatin (2 μM), or docetaxel (0.005 μM)+carboplatin (2 μM). At indicated times, cells were fixed with Formaldehyde (final concentration at 4 or 5%; Thermo, USA) for 30-40 minutes at room temperature. The cells were washed three times with PBS (Cellmax, China), then blocked and permeabilized with 3% BSA (Sigma, USA) in 0.5% Triton X-100 (Sigma, USA) for 2 hrs at room temperature. After discarding the supernatant, the cells were incubated with DAPI (Beyotime, China) for 10 minutes at room temperature, then washed again three times with PBS. The cells were kept in PBS and protected from light throughout experiments. The treated cells were scanned for image acquisition with CellInsight™ CX5 High-Content Screening (HSC) Platform (Thermo Fisher), equipped with filters for DAPI (Ex: 386 nm).
PC-3, DU145, 22Rv1, LNCaP, VcaP, and LNCaP clone FGC cells were seeded in 96-well plates at 2000 cells/well. […]

Consider “1-(2-Methoxyethyl)-2-methyl-4,9-dioxo-3-(pyrazin-2-ylmethyl)-4,9-dihydro-1H-naphtho [2,3-d] imidazolium bromide [YM155]”, for which the results for the “percent inhibition of tumor growth relative to control” value in assay [1] (day 21) and in assay [1] (day 28) were 89.62% and 93.63%, respectively. Besides, the “activity towards tumor growth relative to control” value in assay [2] is on record as “no significant difference”. The “sensitivity of AR− versus AR+ prostate carcinoma cells to treatment (total cell count)” value in assay [3] is reported as “more sensitive”.
